Results as given in patent publication US6284914A, “Highly water-soluble metalloproteinase inhibitors” (Fuji Yakuhin Kogyo Kabushiki Kaisha, priority 1995, dated 2001).
Converted amounts (≈) assume the structure as drawn. Structures can show the parent of a compound that is named as a salt.

Tests used:
TNF-α converting enzyme = target: T1, TNF-α converting enzyme (Homo sapiens, UniProt P78536); assay: Assay for Suppression of TNF-α Production (LPS-stimulated U937 cells); assay type: cell-based; conditions: U937 cells (PMA-differentiated), Lipopoplysaccaride 0.1 μg/ml, 37° C., 6 hours, TNF-α in supernatant; read-out: Inhibitory activities for TNF-α converting enzyme, IC50 value
T1 construct: Human monocyte derived leukemia cell-line U937; endogenous in cells; host or cells: U937 (PMA-differentiated, LPS-stimulated)
T1 sequence (P78536 215-824): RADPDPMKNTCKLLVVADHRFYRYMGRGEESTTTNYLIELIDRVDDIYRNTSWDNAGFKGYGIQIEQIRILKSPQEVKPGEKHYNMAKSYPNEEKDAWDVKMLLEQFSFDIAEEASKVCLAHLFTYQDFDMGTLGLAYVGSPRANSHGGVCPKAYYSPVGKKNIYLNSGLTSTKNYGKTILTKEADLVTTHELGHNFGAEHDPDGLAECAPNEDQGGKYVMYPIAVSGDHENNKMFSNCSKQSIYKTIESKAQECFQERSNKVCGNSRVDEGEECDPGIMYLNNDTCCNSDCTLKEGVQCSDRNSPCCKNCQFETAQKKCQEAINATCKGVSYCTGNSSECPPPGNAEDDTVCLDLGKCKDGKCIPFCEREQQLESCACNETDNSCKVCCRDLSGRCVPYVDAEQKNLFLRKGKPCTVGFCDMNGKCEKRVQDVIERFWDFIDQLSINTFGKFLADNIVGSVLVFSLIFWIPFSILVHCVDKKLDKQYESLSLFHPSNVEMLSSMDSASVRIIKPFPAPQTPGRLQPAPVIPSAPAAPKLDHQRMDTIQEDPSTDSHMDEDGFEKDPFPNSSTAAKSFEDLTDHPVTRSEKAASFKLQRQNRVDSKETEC
Description: Human monocyte derived leukemia cell-line U937 [5% bovine fetal serum (Men-eki Seibutsu Ken) was added to RPMI1640 (Nissui Seiyaku) and incubated in a 5% CO2 incubation chamber at 37° C., whereby 1×10^6 cells/1 ml were placed into each well of a multi-well plate and then incubated in presence of Phorbol 12-myristate 13-acetate (10^-7 M, Wako Junyaku) overnight and differentiated to macrophage like cells.] was added with Lipopoplysaccaride (0.1 μg/ml, Sigma) derived from E.coli 0127:B8 strain alone or together with a compound in Examples, and incubated in a 5% CO2 incubation chamber at 37° C. for 6 hours. After the incubation, the culture medium was taken and centrifuged at 3000 g for 10 min., whereby the supernatant was diluted with purified water forthe measurement using the TNF-α measurement kit (Genzyme) (Table 2).

[1] = Measurement of Solubility in Water; assay type: physicochemical; conditions: water, distilled water, 20±5° C., 30 min., checked by eye
Description: A compound of Examples or a comparative compound was added to distilled water and shaken vigorously at 20±5° C. for 30 seconds at 5 min. interval. After 30 min., it was checked by watching with eye whether the compound was dissolved or not.

stromelysin (MMP-3) = target: T2, stromelysin (MMP-3) (Homo sapiens, UniProt P08254); assay: Assay for Stromelysin Inhibitory Activity (MMP-3); assay type: biochemical; conditions: fluorescein-labeled casein substrate, 37° C., 2 hours, pH 7.8; read-out: Inhibitory activities for matrix metalloproeinases (MMPs), MMP-3, IC50 value
T2 construct: endogenous in cells; host or cells: human fibroblast
T2 sequence (P08254 100-477): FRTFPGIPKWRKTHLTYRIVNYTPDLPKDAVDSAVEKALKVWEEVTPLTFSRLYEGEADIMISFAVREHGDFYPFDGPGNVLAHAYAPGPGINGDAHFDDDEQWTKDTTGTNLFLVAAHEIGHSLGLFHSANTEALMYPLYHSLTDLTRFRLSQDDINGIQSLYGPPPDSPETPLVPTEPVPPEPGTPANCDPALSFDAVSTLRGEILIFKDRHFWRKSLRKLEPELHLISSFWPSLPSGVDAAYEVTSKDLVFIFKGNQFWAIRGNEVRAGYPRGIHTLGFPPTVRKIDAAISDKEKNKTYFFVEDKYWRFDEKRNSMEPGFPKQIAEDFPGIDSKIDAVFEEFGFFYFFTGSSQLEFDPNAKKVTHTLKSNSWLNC
Description: (§1) Inhibitory activities of the compounds represented by the general formula (I) according to the invention for collagenase (metalloproteinase concerned with a tissue destruction) derived from human fibroblast were tested by the method of Y. Murawaki et al., [Journal of Hepatology, 18, p. 328-334 (1993)], and their inhibitory activities for stromelysin derived from human fibroblast were measured by the method of S. S. Twining et al., [Anal. Biochem., 143, p. 30 (1984)].
Inhibitory activities for stromelysin (MMP-3) of the compounds of Examples and comparative compounds were measured by the method of S. S. Twining et al., [Anal. Biochem., 143, p. 30 (1984)]. The latent prostromelysin was incubated with human plasmin (20 μg/ml) for the activation at 37° C. for 2 hours, and then the incubate was added with diisopropyl fluorophosphate solution (2.8 mg/ml) to stop the reaction. The assay was done by using casein labeled with fluorescein as the substrate. The activated stromelysin was added to a substrate solution (1 mg/ml) in Tris HCl buffer (50 mM, pH 7.8) containing calcium chloride (10 mM). The obtained solution was incubated at37° C. for 2 hours. The enzyme digestion forthesubstrate was stopped by adding 5% trichloroacetic acid. The indigested substrate was sedimented by centrifuging at 3000 g for 20 min. The supernatant was taken and added with Tris HCl buffer (0.5 M, pH 8.5), whereby its intensity of fluorescence was determined by the excitation wavelength (495 nm) and the measured wavelength (520 nm), and the inhibitory activity was obtained. IC50 is a concentration of a compound assayed in the digesting enzyme, whereby the splitting of the substrate was decreased to 50% compared with that attained by the enzyme alone.

collagenase (MMP-1) = target: T3, collagenase (MMP-1) (Homo sapiens, UniProt P03956); assay: Assay for Collagenase Inhibitory Activity (MMP-1); assay type: biochemical; conditions: fluorescein-labeled bovine type I collagen substrate, 35° C., 2 hours, pH 7.5; read-out: Inhibitory activities for matrix metalloproeinases (MMPs), MMP-1, IC50 value
T3 construct: endogenous in cells; host or cells: human fibroblast
T3 sequence (P03956 100-469): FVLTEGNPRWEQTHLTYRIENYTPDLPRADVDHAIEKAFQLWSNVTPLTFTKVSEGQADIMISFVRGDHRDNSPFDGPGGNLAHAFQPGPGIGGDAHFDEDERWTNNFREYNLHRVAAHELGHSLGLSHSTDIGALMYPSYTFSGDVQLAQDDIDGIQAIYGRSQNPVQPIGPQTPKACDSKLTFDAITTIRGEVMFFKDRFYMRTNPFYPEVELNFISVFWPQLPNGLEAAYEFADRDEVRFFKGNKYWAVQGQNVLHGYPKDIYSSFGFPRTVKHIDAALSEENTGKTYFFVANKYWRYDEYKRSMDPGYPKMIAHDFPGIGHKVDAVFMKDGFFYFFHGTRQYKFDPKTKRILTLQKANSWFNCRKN
Description: as §1
Inhibitory activities for collagenase (MMP-1) of the compounds of Examples and comparative compounds were measured by the method of Y. Murawaki et al., [Journal of Hepatology, 18, p. 328-334 (1993)]. The latent procollagenase was activated by incubating with mercury aminophenylacetate (2 mM) at 35° C. for 2 hours. The assay was done by using bovine type I collagen labeled with fluorescein as a substrate. The activated collagenase was added to the substrate solution (0.5 mg/ml) in Tris HCl buffer (50 mM, pH 7.5) containing sodium chloride (0.4 M) and calcium chloride (10 mM). The obtained solution was incubated at 35° C. for 2 hours. The enzyme digestion was stopped by the addition of o-phenanthroline (80 mM). The mixture was added with pig spleen elastase solution (25 μg/ml) in the above Tris HCl buffer, and incubated 37° C. for 10 min. The obtained solution was added with 70% ethanol and Tris HCl buffer (170 mM, pH 9.5) containing sodium chloride (0.61 M), whereby the indigested substrate was sedimented by centrifuging at 3000 g for 20 min. The supernatant was taken, and its intensity of fluorescence was determined by the excitation wavelength (495 nm) and the measured wavelength (520 nm), and the inhibitory activity was obtained. IC50 is a concentration of a compound assayed in the digesting enzyme, whereby the splitting of the substrate was decreased to 50% compared with that attained by the enzyme alone.

IC50 (TNF-α converting enzyme) [nM] | solubility at 0.5 h [1] [mg/mL] | IC50 (stromelysin (MMP-3)) [nM] | IC50 (collagenase (MMP-1)) [nM] | Compound
500 | – | – | – | CNC(=O)[C@H](Cc1ccc(S(=O)(=O)O)cc1)NC(=O)[C@H](CC(C)C)C(CSc1cccs1)C(=O)NO (single isomer, unassigned) [Example 5, N-[4-(N-Hydroxyamino)-2(R)-isobutyl-3(R or S)-(thienylthiomethylene)succinyl]-L-4'-sulfophenylalanine-N-methylamide, Monosodium Salt]
98 | 30 (≈ 57.2 mM) | 6 | 6 | CNC(=O)[C@H](Cc1ccc(NC(=N)N)cc1)NC(=O)[C@H](CC(C)C)C(CCCc1ccccc1)C(=O)NO (single isomer, unassigned) [Example 8, N-[4-(N-Hydroxyamino)-2(R)-isobutyl-3(R or S)-(3-phenyltrimethylene)succinyl]-L-4'-guanidophenylalanine-N-methylamideMonoacetate]
400 | – | 9 | 5.8 | CCC(=N)NCc1ccc(C[C@H](NC(=O)[C@H](CC(C)C)C(CCCc2ccccc2)C(=O)NO)C(=O)NC)cc1 (single isomer, unassigned) [Example 11, N-[4-(N-Hydroxyamino)-2(R)-isobutyl-3(R or S)-(3-phenyltrimethylene)succinyl]-L-4'-propionimidoyliminomethylenephenylalanine-N-methylamide Monoacetate]
– | 120 | 5.8 | 8 | CNC(=O)[C@H](Cc1cccc(OS(=O)(=O)O)c1)NC(=O)[C@H](CC(C)C)C(CCCc1ccccc1)C(=O)NO (single isomer, unassigned) [Example 15, N-[4-(N-Hydroxyamino)-2(R)-isobutyl-3(R or S)-(3-phenyltrimethylene)succinyl]-O-sulfo-L-meta-tyrosine-N-methylamide, Monosodium Salt]
– | < 1 | 8 | 0.15 | CNC(=O)[C@H](Cc1ccc(O)cc1)NC(=O)[C@H](CC(C)C)[C@H](CCCc1ccccc1)C(=O)NO [Comparative Compound 2, N-[4-(N-Hydroxyamino)-2(R)-isobutyl-3(S)-phenyltrimethylenesuccinyl]-L-tyrosine-N-methylamide, reference compound]
– | > 250 | 200 | 4.2 | CNC(=O)[C@H](Cc1ccc(S(=O)(=O)O)cc1)NC(=O)C(CC(=O)NO)CC(C)C (stereo partly drawn) [Example 2, N-[4-(N-Hydroxyamino)-2(RS)-isobutylsuccinyl]-L-4'-sulfophenylalanine-N-methylamide, Monosodium Salt]
510 | 150 | – | – | CNC(=O)[C@H](Cc1ccc(S(=O)(=O)O)cc1)NC(=O)[C@H](CC(C)C)C(CCCc1ccccc1)C(=O)NO (stereo partly drawn) [Example 4, N-[4-(N-Hydroxyamino)-2(R)-isobutyl-3(RS)-(3-phenyltrimethylene)succinyl]-L-4'-sulfophenylalanine-N-methylamide, Monosodium Salt]
– | 100 | 10 | 8 | COc1ccc(NC(=O)[C@H](Cc2ccc(OS(=O)(=O)O)cc2)NC(=O)[C@H](CC(C)C)C(CCCc2ccccc2)C(=O)NO)cc1 (stereo partly drawn) [Example 7, N-[4-(N-Hydroxyamino)-2(R)-isobutyl-3(RS)-(3-phenyltrimethylene)succinyl]-O-sulfo-L-tyrosine-N-p-methoxyphenylamide, Monosodium Salt]
7000 | – | – | – | CNC(=O)[C@H](Cc1ccc(NC(=N)N)cc1)NC(=O)[C@H](CC(C)C)[C@H](O)C(=O)NO [Example 16, N-[4-(N-Hydroxyamino)-2(R)-isobutyl-3(S)-hydroxysuccinyl]-L-4'-guanidophenylalanine-N-methylamide Monoacetate]

Compound | IC50 (TNF-α converting enzyme) [nM] | solubility at 0.5 h [1] [mg/mL] | IC50 (stromelysin (MMP-3)) [nM] | IC50 (collagenase (MMP-1)) [nM]
CCCOC[C@H](C(=O)N[C@@H](Cc1ccc(OC)cc1)C(=O)NC)[C@H](CSC(C)C)C(=O)NO [Comparative Compound 4, N-[4-(N-Hydroxyamino)-2(R)-n-propyloxymethylene-3(S)-isopropylthiomethylenesuccinyl]-O-methyl-L-tyrosine-N-methylamide, reference compound] | – | < 1 | 100 | 11
